{"source": "paper PMC3994220", "about": "(Nanoscale Research Letters, 2014)", "assay": "Paclitaxel plasma solubility (excess drug equilibrated in rodent plasma, HPLC)", "assay_type": "physicochemical", "conditions": "37°C, 24 h equilibration", "excerpt": "where dC/dt is the dissolution rate, D is the solute diffusion coefficient, V is the volume of the dissolution medium, hd is the diffusion boundary thickness, S is the surface area of the solute, Cs is the saturation solubility of the solute, and Ct(t) is the bulk solute concentration. The stability of the crystalline nanosuspension was monitored for a period of 3 weeks for particle size, PXRD, and chemical stability (by HPLC). […] Excess drug was then removed by centrifugation which was followed by protein precipitation, and the concentration was measured by HPLC with an external standard.", "data": [{"compound": "CC(=O)O[C@H]1C(=O)[C@@]2(C)[C@H]([C@H](OC(=O)c3ccccc3)[C@]3(O)C[C@H](OC(=O)[C@H](O)[C@@H](NC(=O)c4ccccc4)c4ccccc4)C(C)=C1C3(C)C)[C@]1(OC(C)=O)CO[C@@H]1C[C@@H]2O", "note": "[paclitaxel]", "values": [{"measurement": "solubility at 24 h", "result": 40, "unit": "µg/mL"}]}]}
